# Experimental data reported in paper PMC4279228 (Molecular Biology of the Cell, 2015).
# Biological target: LFA-1 (CD11a/CD18, αLβ2 integrin) (Homo sapiens, UniProt P05107+P20701)
# Assay: Kd of unlabelled compound with XVA-FITC probe, flow cytometry on cells
# Assay type: cell-based
# Sequence of LFA-1 (CD11a/CD18, αLβ2 integrin) (P20701 26-1170): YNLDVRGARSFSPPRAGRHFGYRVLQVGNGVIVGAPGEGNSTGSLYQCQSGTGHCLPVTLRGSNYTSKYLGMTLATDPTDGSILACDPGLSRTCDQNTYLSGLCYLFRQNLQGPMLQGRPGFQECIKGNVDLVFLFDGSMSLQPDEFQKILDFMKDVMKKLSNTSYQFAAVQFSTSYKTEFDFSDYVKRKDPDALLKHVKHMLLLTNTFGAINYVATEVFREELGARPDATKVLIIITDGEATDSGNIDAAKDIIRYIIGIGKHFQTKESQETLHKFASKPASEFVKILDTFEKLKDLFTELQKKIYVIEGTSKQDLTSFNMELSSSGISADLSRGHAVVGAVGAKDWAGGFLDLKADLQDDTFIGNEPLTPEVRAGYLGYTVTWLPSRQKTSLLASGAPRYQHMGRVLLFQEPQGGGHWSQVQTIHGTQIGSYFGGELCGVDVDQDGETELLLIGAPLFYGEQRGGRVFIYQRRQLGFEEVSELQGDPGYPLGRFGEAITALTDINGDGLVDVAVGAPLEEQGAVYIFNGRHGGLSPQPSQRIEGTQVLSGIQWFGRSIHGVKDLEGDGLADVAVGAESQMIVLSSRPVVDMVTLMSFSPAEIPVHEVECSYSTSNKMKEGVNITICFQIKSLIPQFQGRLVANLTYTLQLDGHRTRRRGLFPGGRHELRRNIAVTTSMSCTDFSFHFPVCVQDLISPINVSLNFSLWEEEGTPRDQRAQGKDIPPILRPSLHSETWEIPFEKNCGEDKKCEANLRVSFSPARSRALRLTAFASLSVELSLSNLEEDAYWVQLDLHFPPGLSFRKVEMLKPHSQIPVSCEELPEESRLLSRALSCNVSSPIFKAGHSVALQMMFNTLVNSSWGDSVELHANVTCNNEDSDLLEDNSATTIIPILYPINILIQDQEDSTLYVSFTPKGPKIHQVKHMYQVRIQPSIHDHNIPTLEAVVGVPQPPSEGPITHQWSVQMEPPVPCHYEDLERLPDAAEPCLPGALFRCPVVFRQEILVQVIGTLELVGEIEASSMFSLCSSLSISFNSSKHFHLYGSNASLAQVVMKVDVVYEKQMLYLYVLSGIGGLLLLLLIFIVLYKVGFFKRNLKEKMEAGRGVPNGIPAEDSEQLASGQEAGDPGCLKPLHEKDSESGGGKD
# Sequence of LFA-1 (CD11a/CD18, αLβ2 integrin) (P05107 23-769): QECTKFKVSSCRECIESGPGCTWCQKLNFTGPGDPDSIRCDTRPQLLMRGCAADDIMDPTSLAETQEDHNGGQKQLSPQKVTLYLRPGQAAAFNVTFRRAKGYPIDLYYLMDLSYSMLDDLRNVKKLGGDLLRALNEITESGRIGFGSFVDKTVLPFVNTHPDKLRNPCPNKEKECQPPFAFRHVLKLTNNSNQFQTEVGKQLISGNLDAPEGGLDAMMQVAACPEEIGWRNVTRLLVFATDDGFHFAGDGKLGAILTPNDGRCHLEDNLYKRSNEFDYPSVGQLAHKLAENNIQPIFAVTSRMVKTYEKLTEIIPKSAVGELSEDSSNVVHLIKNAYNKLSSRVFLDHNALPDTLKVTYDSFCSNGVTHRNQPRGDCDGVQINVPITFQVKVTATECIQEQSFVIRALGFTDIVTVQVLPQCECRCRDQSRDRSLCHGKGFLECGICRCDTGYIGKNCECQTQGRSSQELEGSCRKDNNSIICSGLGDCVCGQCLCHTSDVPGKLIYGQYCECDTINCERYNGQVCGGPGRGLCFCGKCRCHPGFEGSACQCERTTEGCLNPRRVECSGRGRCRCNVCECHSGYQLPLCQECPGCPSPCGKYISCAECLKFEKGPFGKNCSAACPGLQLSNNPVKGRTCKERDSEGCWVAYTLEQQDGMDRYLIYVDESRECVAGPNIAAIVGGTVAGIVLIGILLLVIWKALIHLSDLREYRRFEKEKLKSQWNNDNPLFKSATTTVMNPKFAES
compound,measurement,value
"O=C(NCc1cccc(O)c1)c1cc(Cl)c(C(=O)N[C@@H](CNC(=O)c2cc(O)cc(O)c2)C(=O)O)c(Cl)c1 [XVA-143, (S)-2-[4-(3-hydroxybenzylcarbamoyl)-2,6-dichlorobenzoylamino]-3-(3,5-dihydroxybenzoylamino) propionic acid]",Kd,80 to 90 nM
